Laboratory results: publication PMC9370283, “New Quinoxaline-Based Derivatives as PARP-1 Inhibitors: Design, Synthesis, Antiproliferative, and Computational Studies” (Molecules, 2022)
Values joined by “and” are separate entries in the source; they are usually repeats but may differ in a detail not shown here. Equal values may be shown once. Read-outs that look alike come from different tables or passages of the source.

Experiments:
PARP-1 = target: T1, PARP-1 (Homo sapiens, UniProt P09874); assay: colorimetric 96-well PARP-1 assay kit (BPS Bioscience); type: biochemical; settings: for IC50: read-out: IC50 (mean ± SEM) PARP-1
T1 construct: purchased BPS Bioscience 80580
T1 sequence (P09874 whole entry): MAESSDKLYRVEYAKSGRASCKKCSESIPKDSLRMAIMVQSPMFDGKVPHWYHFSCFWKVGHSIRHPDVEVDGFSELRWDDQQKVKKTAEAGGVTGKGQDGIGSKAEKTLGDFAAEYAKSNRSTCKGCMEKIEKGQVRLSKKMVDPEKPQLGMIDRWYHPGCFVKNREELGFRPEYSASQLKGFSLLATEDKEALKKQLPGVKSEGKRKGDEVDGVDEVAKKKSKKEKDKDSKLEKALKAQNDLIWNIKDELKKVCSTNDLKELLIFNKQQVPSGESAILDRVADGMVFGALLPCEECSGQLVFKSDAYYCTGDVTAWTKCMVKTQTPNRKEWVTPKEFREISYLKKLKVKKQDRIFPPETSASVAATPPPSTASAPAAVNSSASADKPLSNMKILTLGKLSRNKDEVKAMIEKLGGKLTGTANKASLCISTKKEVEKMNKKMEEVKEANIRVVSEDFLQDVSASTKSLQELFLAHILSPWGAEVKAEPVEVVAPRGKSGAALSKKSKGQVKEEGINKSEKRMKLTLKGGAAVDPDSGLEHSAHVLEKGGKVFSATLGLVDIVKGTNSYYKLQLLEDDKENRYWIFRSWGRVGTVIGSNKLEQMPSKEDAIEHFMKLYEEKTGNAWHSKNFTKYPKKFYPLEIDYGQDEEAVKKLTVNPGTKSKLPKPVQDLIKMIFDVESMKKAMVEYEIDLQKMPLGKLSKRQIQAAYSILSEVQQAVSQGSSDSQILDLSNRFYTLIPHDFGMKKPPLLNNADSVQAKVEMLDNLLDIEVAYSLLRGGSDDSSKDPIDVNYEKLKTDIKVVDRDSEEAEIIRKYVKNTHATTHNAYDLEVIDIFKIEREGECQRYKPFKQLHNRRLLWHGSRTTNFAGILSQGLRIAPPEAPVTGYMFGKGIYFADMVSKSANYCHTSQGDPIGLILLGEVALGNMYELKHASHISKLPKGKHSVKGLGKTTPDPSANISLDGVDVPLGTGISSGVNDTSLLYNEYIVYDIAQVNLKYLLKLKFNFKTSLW

MDA-MB-436 = assay: in vitro cytotoxicity, MTT assay, MDA-MB-436; settings: for % viability MDA-MB-436: MTT lab report; for IC50: read-out: IC50 (mean ± SEM) MDA-MB-436; for SI: MDA-MB-436, matches IC50 WI-38 / IC50 MDA-MB-436
WI-38 = assay: cytotoxicity against normal cells, MTT assay, WI-38; type: cell-based; settings: Homo sapiens, normal cell line, read-out: IC50 (mean ± SEM) WI-38
Experimental: It has been reported that the frequency and severity of the side effects on normal healthy cells at therapeutic levels are deemed to be critical factors that distinguish different anticancer drugs from each other. […]
to the wells designated as “Blank”. The amount of PARP-1 required for the assay was then calculated. The reaction was initiated by adding 20 µL of diluted PARP-1 en zy me to the wells designated “Positive Control” and “Test Inhibitor Control”. The strip wells were incubated at room temperature for 1 hou r. The strip wells were then wash ed three times with 200 µL of PBST buffer.
Then, 50 µL of 50 times diluted Streptavidin-HRP with blocking buffer was added to each well, and the strips were further incubated at room temperature for 30 min. After washing the wells three times with 200 µL of PBST buffer, HRP colorimetric substrate was added to each well, and the plate was incubated at room temperature until a blue color was developed in the positive control well. Then, the reaction was quenched with 100 µL per well of 2 M sulfuric acid. Carrier solvent (DMSO 5%, v/v) was used as a negative control. All compounds including Ol ap arib were t ested at 5 concentrations (100, 10, 1, 0.1, and 0.01 µM). The optical density (OD) of each well was measured spectrophotometrically at 450 nm with an ELISA microplate reader (ChroMate-4300, FL, USA). The IC50 values were calculated according to the equation for Boltzmann sigmoidal concentration-response curves using the nonlin ear regression fitting model (GraphPad Prism Version 8). All assays were performed in triplicate in 3 repeated experiments. The obtained data are presented as means standard error of the means from 3 independent repeats (n = 3).
4.3.In vitro anticancer screening
The cell lines were purchased from the American Type Culture collection as follows:
Breast Cancer cell lines (MDA-MB-436) and WI38. Cytotoxic activity screening was performed using MTT assay. Exponentially, cells were placed in 10^4 cells/ well for 24 h, and then add fresh med ium containing different concen trations of the tested sample. Serial two-fold dilutions of the tested sample were added using a multichannel pipette. Moreover, all cells were cultivated at 37 °C, with 5% CO2 and 95% humidity. Also, incubation of control cells occurred at 3 7 ° C . […] Rinse the wells using water until no stain. After that, add 30% g lacial acetic acid to all wells with shaking plates on a Microplate reader (TECAN, Inc.) to measure the absorbance, using a test wavelength of 490 nm. Besides, compare the treated samples with the control cell. The cytotoxicity was estimated by IC50 in (μg /mL), the concentration that inhibits 50% of the growth of the examined cell.

[1] = mutant BRCA1 breast cancer cells, MTT

## O=C1CC(=O)N(S(=O)(=O)c2ccc3[nH]c(=O)c(=O)[nH]c3c2)N1 [Compound 6, 6-((3,5-Dioxopyrazolidin-1-yl)sulfonyl)-1,4-dihydroquinoxaline-2,3-dione]
other
  melting point: 270 to 272 °C
PARP-1; ratio of IC50 values
  fold less PARP-1 inhibitory activity than reference drug Olaparib: ~3 fold
PARP-1
  IC50: 0.0133 ± 0.00068 µM

## COc1ccc(N2C(=O)CSC2=NNS(=O)(=O)c2ccc3[nH]c(=O)c(=O)[nH]c3c2)cc1 [Compound 12a, N’-(3-(4-methoxyphenyl)-4-oxothiazolidin-2-ylidene)-2,3-dioxo-1,2,3,4-tetrahydro quinoxaline-6-sulfonohydrazide]
other
  melting point: 292 to 294 °C
PARP-1
  IC50: 0.0361 ± 0.00184 µM

## NNS(=O)(=O)c1ccc2[nH]c(=O)c(=O)[nH]c2c1 [Compound 3, 2,3-Dioxo-1,2,3,4-tetrahydroquinoxaline-6-sulfonohydrazide]
other
  melting point: 285 to 287 °C
PARP-1; ratio of IC50 values
  fold less PARP-1 inhibitory activity than reference drug Olaparib: 3 fold
PARP-1
  IC50: 0.0129 ± 0.00473 µM

## O=C(NC(=S)NNS(=O)(=O)c1ccc2[nH]c(=O)c(=O)[nH]c2c1)c1ccccc1 [Compound 8b, N-(2-((2,3-dioxo-1,2,3,4-tetrahydroquinoxalin-6-yl)sulfonyl)hydrazine-1-carbonothioyl)benzamide]
other
  melting point: 265 to 267 °C
PARP-1; ratio of IC50 values
  fold less PARP-1 inhibitory activity than reference drug Olaparib: 2.5 fold
PARP-1
  IC50: 0.0111 ± 0.00056 µM

## Cc1cc(O)n(S(=O)(=O)c2ccc3[nH]c(=O)c(=O)[nH]c3c2)n1 [Compound 4, 6-((5-Hydroxy-3-methyl-1H-pyrazol-1-yl)sulfonyl)-1,4-dihydroquinoxaline-2,3-dione]
PARP-1; ratio of IC50 values
  fold less PARP-1 inhibitory activity than reference drug Olaparib: ~2 fold
PARP-1
  IC50: 0.00873 ± 0.00044 µM
MDA-MB-436; log conc. 0.193 (1.6uM)
  % viability MDA-MB-436: 69.76%
MDA-MB-436; log conc. 0.796 (6.3uM)
  % viability MDA-MB-436: 60.12%
MDA-MB-436; log conc. 1.398 (25uM)
  % viability MDA-MB-436: 51.83%
MDA-MB-436; log conc. 2 (100uM)
  % viability MDA-MB-436: 42.01%
MDA-MB-436; log conc. -0.409 (0.4uM)
  % viability MDA-MB-436: 81.83%
MDA-MB-436; [1]
  IC50: 30.3 ± 1.78 µM

## O=C(c1cc(Cc2n[nH]c(=O)c3ccccc23)ccc1F)N1CCN(C(=O)C2CC2)CC1 [Olaparib, reference compound]
MDA-MB-436
  IC50: 8.9 µM and 8.63 µM

## CC(=O)c1sc(=NNS(=O)(=O)c2ccc3[nH]c(=O)c(=O)[nH]c3c2)n(C(=O)c2ccccc2)c1C [Compound 11b, N’-(5-acetyl-3-benzoyl-4-methylthiazol-2(3H)-ylidene)-2,3-dioxo-1,2,3,4-tetrahydro Quinoxaline-6-sulfonohydrazide]
PARP-1
  IC50: 0.00825 ± 0.00042 µM
MDA-MB-436
  SI: 6.96
MDA-MB-436; log conc. 0.193 (1.6uM)
  % viability MDA-MB-436: 62.03%
MDA-MB-436; log conc. 0.796 (6.3uM)
  % viability MDA-MB-436: 55.11%
MDA-MB-436; log conc. 1.398 (25uM)
  % viability MDA-MB-436: 44.77%
MDA-MB-436; log conc. 2 (100uM)
  % viability MDA-MB-436: 35.26%
MDA-MB-436; log conc. -0.409 (0.4uM)
  % viability MDA-MB-436: 73.47%
MDA-MB-436; [1]
  IC50: 11.5 ± 0.67 µM
WI-38
  IC50: 80.1 ± 0.82 µM

## O=C1C=CC(=O)N1NS(=O)(=O)c1ccc2[nH]c(=O)c(=O)[nH]c2c1 [Compound 7b, N-(2,5-dioxo-2,5-dihydro-1H-pyrrol-1-yl)-2,3-dioxo-1,2,3,4-tetrahydroquinoxaline-6-sulfonamide]
other
  melting point: 295 to 297 °C
PARP-1
  IC50: 0.0358 ± 0.0018 µM

## O=C1CSC(=NNS(=O)(=O)c2ccc3[nH]c(=O)c(=O)[nH]c3c2)N1C(=O)c1ccccc1 [Compound 12b, N’-(3-benzoyl-4-oxothiazolidin-2-ylidene)-2,3-dioxo-1,2,3,4-tetrahydroquinoxaline-6-sulfonohydrazide]
other
  melting point: 290 to 292 °C
PARP-1
  IC50: 0.0405 ± 0.00206 µM

## O=C1c2ccccc2C(=O)N1NS(=O)(=O)c1ccc2[nH]c(=O)c(=O)[nH]c2c1 [Compound 7c, N-(1,3-dioxoisoindolin-2-yl)-2,3-dioxo-1,2,3,4-tetrahydroquinoxaline-6-sulfonamide]
other
  melting point: 207 to 209 °C
PARP-1
  IC50: 0.0434 ± 0.0001 µM

## COc1ccc(-n2c(C)csc2=NNS(=O)(=O)c2ccc3[nH]c(=O)c(=O)[nH]c3c2)cc1 [Compound 10a, N′-(3-(4-methoxyphenyl)-4-methylthiazol-2(3H)-ylidene)-2,3-dioxo-1,2,3,4-tetrahydroquinoxaline-6-sulfonohydrazide]
other
  melting point: 130 to 132 °C
PARP-1
  IC50: 0.0216 ± 0.0011 µM

## O=C(c1ccccc1)n1c(=O)cc(O)n(NS(=O)(=O)c2ccc3[nH]c(=O)c(=O)[nH]c3c2)c1=S [Compound 9b, N-(3-benzoyl-6-hydroxy-4-oxo-2-thioxo-3,4-dihydropyrimidin-1(2H)-yl)-2,3-dioxo-1,2,3,4-tetrahydroquinoxaline-6-sulfonamide]
other
  melting point: 270 to 272 °C
PARP-1
  IC50: 0.0357 ± 0.00182 µM

## COc1ccc(-n2c(C)c(C(C)=O)sc2=NNS(=O)(=O)c2ccc3[nH]c(=O)c(=O)[nH]c3c2)cc1 [Compound 11a, N’-(5-acetyl-3-(4-methoxyphenyl)-4-methylthiazol-2(3H)-ylidene)-2,3-dioxo-1,2,3,4-tetrahydroquinoxaline-6-sulfonohydrazide]
other
  melting point: 185 to 187 °C
PARP-1
  IC50: 0.0194 ± 0.00099 µM

## Cc1csc(=NNS(=O)(=O)c2ccc3[nH]c(=O)c(=O)[nH]c3c2)n1C(=O)c1ccccc1 [Compound 10b, N’-(3-benzoyl-4-methylthiazol-2(3H)-ylidene)-2,3-dioxo-1,2,3,4-tetrahydroquinoxaline-6-sulfonohydrazide]
PARP-1
  IC50: 0.00635 ± 0.00032 µM
MDA-MB-436
  SI: 7.86
MDA-MB-436; log conc. 0.193 (1.6uM)
  % viability MDA-MB-436: 65.24%
MDA-MB-436; log conc. 0.796 (6.3uM)
  % viability MDA-MB-436: 52.38%
MDA-MB-436; log conc. 1.398 (25uM)
  % viability MDA-MB-436: 43.29%
MDA-MB-436; log conc. 2 (100uM)
  % viability MDA-MB-436: 32.38%
MDA-MB-436; log conc. -0.409 (0.4uM)
  % viability MDA-MB-436: 72.68%
MDA-MB-436; [1]
  IC50: 9.62 ± 0.56 µM
WI-38
  IC50: 75.66 ± 0.51 µM

## O=C1CCC(=O)N1NS(=O)(=O)c1ccc2[nH]c(=O)c(=O)[nH]c2c1 [Compound 7a, N-(2,5-dioxopyrrolidin-1-yl)-2,3-dioxo-1,2,3,4-tetrahydroquinoxaline-6-sulfonamide]
other
  melting point: 292 to 294 °C
PARP-1
  IC50: 0.0571 ± 0.00291 µM

## COc1ccc(-n2c(=O)cc(O)n(NS(=O)(=O)c3ccc4[nH]c(=O)c(=O)[nH]c4c3)c2=S)cc1 [Compound 9a, N-(6-hydroxy-3-(4-methoxyphenyl)-4-oxo-2-thioxo-3,4-dihydropyrimidin-1(2H)-yl)-2,3-dioxo-1,2,3,4-tetrahydroquinoxaline-6-sulfonamide]
other
  melting point: 205 to 207 °C
PARP-1
  IC50: 0.0574 ± 0.0029 µM

## COc1ccc(NC(=S)NNS(=O)(=O)c2ccc3[nH]c(=O)c(=O)[nH]c3c2)cc1 [Compound 8a, 2-((2,3-Dioxo-1,2,3,4-tetrahydroquinoxalin-6-yl)sulfonyl)-N-(4-methoxyphenyl) Hydrazine-1-carbothioamide]
PARP-1; ratio of IC50 values
  fold higher PARP-1 inhibitory activity than Olaparib: ~2 fold
PARP-1
  IC50: 0.00231 ± 0.0003 µM
MDA-MB-436
  SI: 6.58
MDA-MB-436; log conc. 0.193 (1.6uM)
  % viability MDA-MB-436: 61.23%
MDA-MB-436; log conc. 0.796 (6.3uM)
  % viability MDA-MB-436: 53.52%
MDA-MB-436; log conc. 1.398 (25uM)
  % viability MDA-MB-436: 43.91%
MDA-MB-436; log conc. 2 (100uM)
  % viability MDA-MB-436: 35.79%
MDA-MB-436; log conc. -0.409 (0.4uM)
  % viability MDA-MB-436: 73.41%
MDA-MB-436; [1]
  IC50: 10.7 ± 0.63 µM
WI-38
  IC50: 70.46 ± 0.43 µM
